From patent publication US9675627B2, “Dosing regimens for treating and/or preventing cerebral amyloidoses” (Amicus Therapeutics, Inc., priority 2014, dated 2017)

Assays:
[1] = target: T1, β-glucocerebrosidase (GCase) (Homo sapiens, UniProt P04062); assay: Selectivity: glucocerebrosidase activity in fibroblast lysate; format: biochemical; conditions: 10 μM, the highest concentration tested
T1 construct: wild-type fibroblast (CRL2076) pellets (˜2.5e6 cells/pellet) were lysed; host or cells: wild-type fibroblasts CRL2076, lysate
T1 sequence (P04062 40-536): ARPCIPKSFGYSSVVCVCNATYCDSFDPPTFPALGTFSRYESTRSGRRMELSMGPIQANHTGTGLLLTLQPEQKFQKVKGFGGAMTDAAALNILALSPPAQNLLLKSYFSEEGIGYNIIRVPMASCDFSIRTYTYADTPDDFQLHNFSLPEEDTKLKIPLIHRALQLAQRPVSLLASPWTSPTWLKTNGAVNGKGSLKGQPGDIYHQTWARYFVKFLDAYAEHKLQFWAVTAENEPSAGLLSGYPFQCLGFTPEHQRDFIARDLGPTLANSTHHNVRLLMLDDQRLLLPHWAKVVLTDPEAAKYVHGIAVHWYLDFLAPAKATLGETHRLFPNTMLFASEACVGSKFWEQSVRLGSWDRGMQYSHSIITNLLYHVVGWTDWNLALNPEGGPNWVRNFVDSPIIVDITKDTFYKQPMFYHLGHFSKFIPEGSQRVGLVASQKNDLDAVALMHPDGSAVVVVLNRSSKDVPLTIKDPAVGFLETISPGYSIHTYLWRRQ
From the text: (§1) Enzymatic activity measurements were done in duplicate.

[2] = target: T2, α-galactosidase (α-Gal) (Homo sapiens, UniProt P06280); assay: Selectivity: alpha-galactosidase activity in fibroblast lysate; format: biochemical; conditions: 10 μM, the highest concentration tested
T2 construct: wild-type fibroblast (CRL2076) pellets (˜2.5e6 cells/pellet) were lysed; host or cells: wild-type fibroblasts CRL2076, lysate
T2 sequence (P06280 32-429): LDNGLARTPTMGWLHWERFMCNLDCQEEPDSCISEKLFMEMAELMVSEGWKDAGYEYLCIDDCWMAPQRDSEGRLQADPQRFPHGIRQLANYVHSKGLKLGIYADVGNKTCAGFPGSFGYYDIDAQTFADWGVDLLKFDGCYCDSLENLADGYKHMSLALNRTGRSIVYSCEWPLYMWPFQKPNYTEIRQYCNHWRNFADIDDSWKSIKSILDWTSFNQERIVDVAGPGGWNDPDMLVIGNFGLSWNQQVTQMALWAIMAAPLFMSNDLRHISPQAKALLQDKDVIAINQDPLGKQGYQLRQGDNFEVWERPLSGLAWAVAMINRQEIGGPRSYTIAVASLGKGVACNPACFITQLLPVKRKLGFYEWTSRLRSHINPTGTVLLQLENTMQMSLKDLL
From the text: as §1

[3] = tested on: SH-SY5Y cells; assay: Cell viability, tetrazolium-formazan conversion; format: cell-based, human; conditions: concentrations as high as 1 mM, up to 120 hours
Protocol: Viability of human fibroblast (CRL2076) and human neuroblastoma (SH-SY5Y) cells was tested after prolonged exposure to varying concentrations of AdDNJ. In a 96-well plate, fibroblasts were incubated in complete media containing increasing concentrations of AdDNJ up to 1 mM for either 72 or 120 hours at 37° C. in a humidified 8% CO2 incubator. Living cells were quantified using a tetrazoliuim-formazan conversion method according to the manufacturer's instructions (Promega Non-Radioactive 96-well Titer assay, TB112). SH-SY5Y cells were tested in the same manner as fibroblasts but plated in collagen-coated plates (Nunc #152036). After 24 hour, 48 hour and 120 hour exposure to AdDNJ, living SH-SY5Y cells were quantified as described above. All dosing concentrations were done in triplicate.

[4] = tested on: GM1, GM2, and GM3 ganglioside levels; assay: TLC analysis of whole brain ganglioside levels; format: in vivo, Dutch APP^E693Q transgenic mice; conditions: 3 months of 100 mg/kg
Protocol: (§2) The generation and characterization of Dutch APPE693Q mice transgenic mice is described in Gandy, S., et al. Days to criterion as an indicator of toxicity associated with human Alzheimer amyloid-beta oligomers. Annals of neurology 68, 220-230 (2010). 3-month-old male Dutch APP^E693Q mice transgenic mice were orally gavaged 5 days/week with either vehicle (water) (n=15) or 3, 10, 30 or 100 mg/kg AdDNJ for 3 months (n=13). All animal studies were approved and conducted in accordance with the Institutional Animal Care and Usage Committee. Mice were kept in a pathogen-free environment, on a 12-hour light/dark cycle and given ad libitum access to food and water. At 6 month of age treatment groups, and a 3-month-old untreated baseline group (n=15), were cognitively assessed in the NOR, EPM and FC tests. 48 hours following the final dose mice were perfused with ice-cold 1×PBS. The brain was removed and dissected into two hemispheres. One half was snap-frozen on dry ice and stored at −80° C. for biochemistry; the other half was post-fixed in 4% paraformaldehyde then sagittally sectioned on a vibratome into 30 μm sections and stored at 4° C. in storage buffer until histological analyses.

[5] = tested on: Aβ; assay: Aβ immunohistochemistry (mAb 6E10); format: in vivo, Dutch APP^E693Q transgenic mice; conditions: 100 mg/kg, 3 months
Protocol: as §2
Aβ was assessed via free-floating immunohistochemistry using mAb 6E10 (1:1000, Covance) as previously described20. GAβ was assessed via free-floating immunohistochemistry using mouse anti-GAβ, clone 4396C (1:100), a gift from Dr. Katsuhiko Yanagisawa as previously described19. Images were captured on an Olympus BX61 upright microscope with an attached Olympus DP71 camera. Integrated density of GAβ staining was measured using Image J (National Institute of Health, Bethesda, Md.).

With `CC(=O)NC1CNC(CO)[C@@H](O)C1O` (stereo partly shown) [AdDNJ, 2-acetamido-1,2-dideoxynojirimycin] the “inhibition of β-glucocerebrosidase (GCase)” value [1] was “did not inhibit”, the “inhibition of α-galactosidase (α-Gal)” value [2] was “did not inhibit” and the “effect on cell viability” value [3] was “little or no effect on cell viability”. For the same compound, the “ganglioside levels in whole brain extracts (TLC)” value [4] was “did not reveal any changes in ganglioside levels”, the “Aβ accumulation, CA1 region of the hippocampus” value [5] was “no differences were observed” and the “Aβ accumulation, subiculum” value [5] was “qualitative region-specific reduction of Aβ accumulation”. The “Aβ accumulation, visual cortex” value [5] was “no differences were observed”.
